Test results from paper PMC3701070 (PLoS ONE, 2013).

What was measured:
Assay in all cases: Cell growth assay
Format in all cases: cell-based
NCI-H82 = conditions: Homo sapiens, 72 h; NCI-H82, RAF WT, RAS WT, 3-day; read-out: gIC50
Description: (§1) Growth was measured with CellTiter-Glo® (Promega) reagent per the manufacturer’s protocol, using a PerkinElmer EnVision™ reader at t = 0 and 72 h. IC50 values for cell growth inhibition (gIC50) were determined.
(§2) (PDF) Click here for additional data file.

T47D = conditions: Homo sapiens, 72 h, RAF WT, RAS WT, 3-day, read-out: gIC50
Description: as §1, §2

SK-LMS-1 = conditions: Homo sapiens, 72 h; SK-LMS-1, RAF WT, RAS WT, 3-day; read-out: gIC50
Description: as §1, §2

DOTC 24510 = conditions: Homo sapiens, DoTc2-4510, 72 h; DOTC 24510, RAF WT, RAS WT, 3-day; read-out: gIC50
Description: as §1, §2

SNB-19 = conditions: Homo sapiens, 72 h; SNB-19, RAF WT, RAS WT, 3-day; read-out: gIC50
Description: as §1, §2

HCC-70 = conditions: Homo sapiens, HCC70, 72 h; HCC-70, RAF WT, RAS WT, 3-day; read-out: gIC50
Description: as §1, §2

OVCAR-5 = conditions: Homo sapiens, 72 h; OVCAR-5, RAF WT, RAS WT, 3-day; read-out: gIC50
Description: as §1, §2

HT-3 = conditions: Homo sapiens, 72 h; HT-3, RAF WT, RAS WT, 3-day; read-out: gIC50
Description: as §1, §2

NCI-H209 = conditions: Homo sapiens, 72 h; NCI-H209, RAF WT, RAS WT, 3-day; read-out: gIC50
Description: as §1, §2

HCC-2998 = conditions: Homo sapiens, 72 h; HCC-2998, RAF WT, KRAS(A146T), 3-day; read-out: gIC50
Description: as §1, §2

CAL-62 = conditions: Homo sapiens, 72 h; CAL-62, RAF WT, RAS WT, 3-day; read-out: gIC50
Description: as §1, §2

CRO-AP2 = conditions: Homo sapiens, 72 h; CRO-AP2, RAF WT, RAS WT, 3-day; read-out: gIC50
Description: as §1, §2

MDA-MB-468 = conditions: Homo sapiens, 72 h; MDA-MB-468, RAF WT, RAS WT, 3-day; read-out: gIC50
Description: as §1, §2

NCI-H226 = conditions: Homo sapiens, 72 h; NCI-H226, RAF WT, RAS WT, 3-day; read-out: gIC50
Description: as §1, §2

MC/CAR = conditions: Homo sapiens, 72 h, RAF WT, RAS WT, 3-day, read-out: gIC50
Description: as §1, §2

NCI-H716 = conditions: Homo sapiens, 72 h; NCI-H716, RAF WT, RAS WT, 3-day; read-out: gIC50
Description: as §1, §2

HN5 = conditions: Homo sapiens, 72 h; HN5, RAF WT, RAS WT, 3-day; read-out: gIC50
Description: as §1, §2

NCI-H747 = conditions: Homo sapiens, 72 h; NCI-H747, RAF WT, KRAS(G13D), 3-day; read-out: gIC50
Description: as §1, §2

SW-780 = conditions: Homo sapiens, SW780, 72 h; SW-780, RAF WT, RAS WT, 3-day; read-out: gIC50
Description: as §1, §2

A673 = conditions: Homo sapiens, 72 h; A673, BRAF(V600E), RAS WT, 3-day; read-out: gIC50
Description: as §1, §2

NCI-H508 = conditions: Homo sapiens, 72 h; NCI-H508, BRAF(G596R), RAS WT, 3-day; read-out: gIC50
Description: as §1, §2

SCLC-3 = conditions: Homo sapiens, 72 h; SCLC-3, RAF WT, RAS WT, 3-day; read-out: gIC50
Description: as §1, §2

NCI-H460 = conditions: Homo sapiens, 72 h; NCI-H460, RAF WT, KRAS(Q61H), 3-day; read-out: gIC50
Description: as §1, §2

A431 = conditions: Homo sapiens, A-431, 72 h; A431, RAF WT, RAS WT, 3-day; read-out: gIC50
Description: as §1, §2

MES-SA = conditions: Homo sapiens, 72 h, RAF WT, RAS WT, 3-day, read-out: gIC50
Description: as §1, §2

KHOS-240S = conditions: Homo sapiens, 72 h, RAF WT, RAS WT, 3-day, read-out: gIC50
Description: as §1, §2

C-4 I = conditions: Homo sapiens, 72 h, RAF WT, RAS WT, 3-day, read-out: gIC50
Description: as §1, §2

SNU-398 = conditions: Homo sapiens, 72 h; SNU-398, RAF WT, RAS WT, 3-day; read-out: gIC50
Description: as §1, §2

BxPc3 = conditions: Homo sapiens, BXPC-3, 72 h; BxPc3, RAF WT, RAS WT, 3-day; read-out: gIC50
Description: as §1, §2

A101D = conditions: Homo sapiens, 72 h, BRAF(V600E), RAS WT, 3-day, read-out: gIC50
Description: as §1, §2

CGTHW1 = conditions: Homo sapiens, CGTH-W-1, 72 h; CGTHW1, RAF WT, RAS WT, 3-day; read-out: gIC50
Description: as §1, §2

HeLa = conditions: Homo sapiens, 72 h, RAF WT, RAS WT, 3-day, read-out: gIC50
Description: as §1, §2

Measured: IC50

CC(C)(C)c1nc(-c2cccc(NS(=O)(=O)c3c(F)cccc3F)c2F)c(-c2ccnc(N)n2)s1 [dabrafenib]
0.009 µM: A101D
1 µM: MC/CAR
6.99 µM: MES-SA
> 10 µM: all other assays above
